For one compound, remaining activity and IC50 results are on record in article PMC4710522, “A Novel Triazolopyridine-Based Spleen Tyrosine Kinase Inhibitor That Arrests Joint Inflammation” (PLoS ONE, 2016).

What all share (format): biochemical
Experiment [1] deals with T1, EphA3_h (Homo sapiens, UniProt P29320).
T1 construct: purchased Life Technologies (Invitrogen) SelectScreen, Z'-LYTE / Adapta
The experiment in a line: SelectScreen kinase assay. Conditions: KM ATP, read-out: % control. How it is done: (§1) Syk kinase mode of inhibition studies, including parameters described in Fig 1, were conducted on the LC3000 platform by Caliper Life Sciences (Hopkinton, MA) according to standard protocols developed by the supplier. […] Non-kinase enzyme assays and GPCR, ion channel, and transporter binding assays were run by CEREP (France). Non-GLP manual patch clamp hERG assays were run by ChanTest (Cleveland, Ohio). Vivid® Assay kits (Life Technologies) were used to measure the cytochrome P450 inhibition of the compound against CYP3A, CYP2C9, CYP2C19, CYP2D6, and CYP1A2, as described.
(§2) Kinase activity was measured using either the Z’-Lyte® or the Adapta® protocols as part of the SelectScreen™ profiling service offered at Life Technologies (Grand Island, NY). For the single point measurements (Part A), CC-509 was kept constant at 3 µM while ATP concentrations [ATP] used were at the KM for ATP (KM ATP) for that specific enyzme, at 10 or 100 µM ATP (10 ATP or 100 ATP, respectively), as indicated. Values expressed as percent control (% control) relative to DMSO-only wells (uninhibited, 100%).

In experiment [2] the target is T2, PI3K-C2 alpha_h (Homo sapiens, UniProt O00443).
T2 construct: purchased Life Technologies (Invitrogen) SelectScreen, Z'-LYTE / Adapta
The experiment in a line: SelectScreen kinase assay. The conditions noted are these: KM ATP, read-out: % control. How it is done:
as §1, §2

In experiment [3] the target is T3, PI3K-C2 beta_h (Homo sapiens, UniProt O00750).
T3 construct: purchased Life Technologies (Invitrogen) SelectScreen, Z'-LYTE / Adapta
T3 sequence (O00750 whole entry): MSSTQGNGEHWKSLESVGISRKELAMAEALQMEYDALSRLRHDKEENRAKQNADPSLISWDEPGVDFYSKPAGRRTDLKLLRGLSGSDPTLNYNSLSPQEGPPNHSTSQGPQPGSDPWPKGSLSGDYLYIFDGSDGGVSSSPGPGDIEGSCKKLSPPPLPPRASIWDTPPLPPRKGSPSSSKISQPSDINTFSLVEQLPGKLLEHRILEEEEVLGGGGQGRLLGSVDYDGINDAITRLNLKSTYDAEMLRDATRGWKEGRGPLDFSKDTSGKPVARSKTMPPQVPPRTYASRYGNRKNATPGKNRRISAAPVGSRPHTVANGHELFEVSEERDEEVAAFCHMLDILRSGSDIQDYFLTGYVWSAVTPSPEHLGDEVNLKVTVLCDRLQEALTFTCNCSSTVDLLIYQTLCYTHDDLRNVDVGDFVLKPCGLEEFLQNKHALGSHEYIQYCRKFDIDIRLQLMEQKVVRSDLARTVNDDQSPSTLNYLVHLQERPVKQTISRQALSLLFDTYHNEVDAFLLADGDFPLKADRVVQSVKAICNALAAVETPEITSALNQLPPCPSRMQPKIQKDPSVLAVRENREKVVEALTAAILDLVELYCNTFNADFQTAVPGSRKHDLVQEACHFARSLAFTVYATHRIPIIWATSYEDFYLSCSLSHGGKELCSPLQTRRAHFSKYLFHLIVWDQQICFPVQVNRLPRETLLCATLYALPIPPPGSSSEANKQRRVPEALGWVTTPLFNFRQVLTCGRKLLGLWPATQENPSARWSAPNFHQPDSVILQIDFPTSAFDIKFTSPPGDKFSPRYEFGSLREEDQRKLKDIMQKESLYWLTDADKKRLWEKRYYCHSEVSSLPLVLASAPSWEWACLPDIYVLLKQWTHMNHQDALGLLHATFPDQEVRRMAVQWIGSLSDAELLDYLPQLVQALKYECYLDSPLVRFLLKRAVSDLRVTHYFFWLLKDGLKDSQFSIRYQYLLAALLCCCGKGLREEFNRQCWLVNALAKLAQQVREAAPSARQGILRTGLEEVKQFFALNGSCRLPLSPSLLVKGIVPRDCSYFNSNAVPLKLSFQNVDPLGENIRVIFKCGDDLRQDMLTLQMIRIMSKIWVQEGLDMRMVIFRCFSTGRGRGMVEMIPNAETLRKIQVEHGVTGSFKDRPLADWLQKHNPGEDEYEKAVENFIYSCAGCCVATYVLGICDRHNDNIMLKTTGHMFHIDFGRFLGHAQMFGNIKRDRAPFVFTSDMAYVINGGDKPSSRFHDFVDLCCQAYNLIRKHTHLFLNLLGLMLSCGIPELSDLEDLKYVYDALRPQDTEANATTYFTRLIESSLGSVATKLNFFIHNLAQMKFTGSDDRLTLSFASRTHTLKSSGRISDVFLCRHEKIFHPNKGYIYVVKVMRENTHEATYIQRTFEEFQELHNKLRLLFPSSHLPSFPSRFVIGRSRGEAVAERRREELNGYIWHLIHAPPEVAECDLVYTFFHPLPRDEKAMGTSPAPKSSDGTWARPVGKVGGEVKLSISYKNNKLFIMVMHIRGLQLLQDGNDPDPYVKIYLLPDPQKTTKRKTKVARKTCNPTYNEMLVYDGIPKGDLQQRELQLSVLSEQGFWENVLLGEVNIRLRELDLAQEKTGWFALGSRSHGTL
Nature of the experiment: SelectScreen kinase assay. The conditions noted are these: 10 µM ATP, read-out: % control. The procedure: as §1, §2

Experiment [4] deals with T4, PI3_Kinase-alpha_h (Homo sapiens, UniProt P42336).
T4 construct: purchased Life Technologies (Invitrogen) SelectScreen, Z'-LYTE / Adapta
Nature of the experiment: SelectScreen kinase assay. The conditions noted are these: KM ATP, read-out: % control. How it is done: as §1, §2

Experiment [5] has as its target T5, PI3_Kinase-delta_h (Homo sapiens, UniProt O00329).
T5 construct: purchased Life Technologies (Invitrogen) SelectScreen, Z'-LYTE / Adapta
The experiment in a line: SelectScreen kinase assay. The conditions noted are these: KM ATP, read-out: % control. The procedure: as §1, §2

For experiment [6], the target named is T6, PI3_Kinase-gamma_h (Homo sapiens, UniProt P48736).
T6 construct: purchased Life Technologies (Invitrogen) SelectScreen, Z'-LYTE / Adapta
The experiment in a line: SelectScreen kinase assay. The conditions noted are these: KM ATP, read-out: % control. The procedure: as §1, §2

Experiment [7] addresses T7, PI4K-alpha_h (Homo sapiens, UniProt P42356).
T7 construct: purchased Life Technologies (Invitrogen) SelectScreen, Z'-LYTE / Adapta
The experiment in a line: SelectScreen kinase assay. Conditions: 10 µM ATP, read-out: % control. How it is done:
as §1, §2

The target of experiment [8] is T8, PI4K-beta_h (Homo sapiens, UniProt Q9UBF8).
T8 construct: purchased Life Technologies (Invitrogen) SelectScreen, Z'-LYTE / Adapta
Nature of the experiment: SelectScreen kinase assay. The conditions noted are these: KM ATP, read-out: % control. How it is done: as §1, §2

For experiment [9], the target named is T9, PIK3C3_h (Homo sapiens, UniProt Q8NEB9).
T9 construct: purchased Life Technologies (Invitrogen) SelectScreen, Z'-LYTE / Adapta
The experiment in a line: SelectScreen kinase assay. The conditions noted are these: KM ATP, read-out: % control. How it is done: as §1, §2

In experiment [10] the target is T10, SPHK1_h (Homo sapiens, UniProt Q9NYA1).
T10 construct: purchased Life Technologies (Invitrogen) SelectScreen, Z'-LYTE / Adapta
T10 sequence (Q9NYA1 whole entry): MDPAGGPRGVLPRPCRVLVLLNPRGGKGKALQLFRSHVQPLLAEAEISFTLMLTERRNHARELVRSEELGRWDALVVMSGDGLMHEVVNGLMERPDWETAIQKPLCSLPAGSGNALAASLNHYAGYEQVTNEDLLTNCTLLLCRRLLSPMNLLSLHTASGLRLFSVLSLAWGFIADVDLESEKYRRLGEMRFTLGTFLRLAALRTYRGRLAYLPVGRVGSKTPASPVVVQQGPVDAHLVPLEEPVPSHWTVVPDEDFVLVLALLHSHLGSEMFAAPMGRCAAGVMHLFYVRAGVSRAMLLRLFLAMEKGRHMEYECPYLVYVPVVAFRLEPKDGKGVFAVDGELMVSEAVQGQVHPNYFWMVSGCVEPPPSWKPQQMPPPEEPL
Nature of the experiment: SelectScreen kinase assay. The conditions noted are these: KM ATP, read-out: % control. How it is done: as §1, §2

The target in experiment [11] is T11, SPHK2_h (Homo sapiens, UniProt Q9NRA0).
T11 construct: purchased Life Technologies (Invitrogen) SelectScreen, Z'-LYTE / Adapta
The experiment in a line: SelectScreen kinase assay. The conditions noted are these: 10 µM ATP, read-out: % control. How it is done: as §1, §2

For experiment [12], the target named is T12, KDR (Homo sapiens, UniProt P35968).
T12 construct: purchased Life Technologies PV3660
T12 sequence (P35968 20-1356): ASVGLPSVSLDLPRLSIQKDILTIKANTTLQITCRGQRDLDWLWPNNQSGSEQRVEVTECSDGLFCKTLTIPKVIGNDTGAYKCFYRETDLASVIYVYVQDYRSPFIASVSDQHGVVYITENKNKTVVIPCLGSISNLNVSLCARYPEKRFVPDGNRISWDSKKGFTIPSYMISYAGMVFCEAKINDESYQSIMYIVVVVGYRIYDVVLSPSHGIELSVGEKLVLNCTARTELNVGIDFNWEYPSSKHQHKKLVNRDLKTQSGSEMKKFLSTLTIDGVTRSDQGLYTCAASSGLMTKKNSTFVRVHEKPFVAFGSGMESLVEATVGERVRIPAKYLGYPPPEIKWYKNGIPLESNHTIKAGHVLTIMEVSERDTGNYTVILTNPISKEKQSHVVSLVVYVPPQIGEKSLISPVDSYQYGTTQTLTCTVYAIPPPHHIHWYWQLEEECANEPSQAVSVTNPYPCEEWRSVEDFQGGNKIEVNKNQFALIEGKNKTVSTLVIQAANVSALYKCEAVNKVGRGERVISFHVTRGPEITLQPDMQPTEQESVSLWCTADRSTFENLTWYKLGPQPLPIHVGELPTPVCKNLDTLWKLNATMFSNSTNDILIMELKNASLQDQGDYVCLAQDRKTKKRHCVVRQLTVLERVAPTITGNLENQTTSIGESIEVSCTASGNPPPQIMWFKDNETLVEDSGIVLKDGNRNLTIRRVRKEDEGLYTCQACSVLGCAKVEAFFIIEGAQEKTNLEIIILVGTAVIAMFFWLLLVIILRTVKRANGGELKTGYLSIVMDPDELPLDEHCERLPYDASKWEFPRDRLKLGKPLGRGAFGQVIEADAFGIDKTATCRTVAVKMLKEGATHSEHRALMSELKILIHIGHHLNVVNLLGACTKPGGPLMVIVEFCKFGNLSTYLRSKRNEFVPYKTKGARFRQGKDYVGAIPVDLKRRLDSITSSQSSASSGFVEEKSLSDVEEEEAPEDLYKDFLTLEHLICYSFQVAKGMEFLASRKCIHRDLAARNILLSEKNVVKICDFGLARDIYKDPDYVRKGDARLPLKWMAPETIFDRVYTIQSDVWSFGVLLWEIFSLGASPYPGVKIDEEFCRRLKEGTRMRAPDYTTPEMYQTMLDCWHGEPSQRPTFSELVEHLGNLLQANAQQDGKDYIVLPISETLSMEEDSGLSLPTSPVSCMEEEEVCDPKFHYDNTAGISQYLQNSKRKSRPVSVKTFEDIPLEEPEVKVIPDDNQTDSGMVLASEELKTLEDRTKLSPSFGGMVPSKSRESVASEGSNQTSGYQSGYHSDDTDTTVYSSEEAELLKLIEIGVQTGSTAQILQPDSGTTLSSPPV
Nature of the experiment: KDR HTRF assay. Conditions: in-house, mean ± SD. The procedure:
CC-509 was prepared at a concentration of 1.5 mM in DMSO followed by 3-fold dilutions in Greiner […] polypropylene plates. A 1:4 dilution of compounds by 8 μL/well transfer from the polypropylene plates to 24 μL/well Assay Buffer (50 mM HEPES pH 7.6, 1 mM DTT, 10 mM MgCl2, 0.01% Triton X-100, 0.01% BSA and 0.1 mM EDTA) in Costar 3573 384 well black plates was then performed. Kinase (13 μL/well of 7.7 ng/ml KDR (Life Technologies, Grand Island, NY PV3660) in Assay Buffer) or Assay Buffer only (background controls) were added to Costar 3573 384-well black plates and compound (2 μL/ well) was added from the 1:4 dilution plate. […] Time resolved fluorescence was read in assay plates on a PerkinElmer EnVision. […] The IC50 value was determined as described in the data fitting section below.
For the TEL-Syk assay, the intensity values for the 700 and 800 channel were exported as text files in ActivityBase (IDBS, Guildford, UK) to derive the ratios that reflect kinase activity. […] For the JAK2 HEL and Ramos NFAT β-lactamase assays, the fluorescence values obtained at 460 nm and 530 nm were exported into ActivityBase to calculate response ratios. […] Evans blue dye extravasation was expressed as mean ± SEM and % inhibition for the test article groups was normalized to the cromolyn positive control. […] Data is expressed as mean ± SEM of each group with n = 6–12. […]
Background: In TR-FRET formats the signal depends on donor and acceptor labels being close together.

T5 sequence (O00329 whole entry): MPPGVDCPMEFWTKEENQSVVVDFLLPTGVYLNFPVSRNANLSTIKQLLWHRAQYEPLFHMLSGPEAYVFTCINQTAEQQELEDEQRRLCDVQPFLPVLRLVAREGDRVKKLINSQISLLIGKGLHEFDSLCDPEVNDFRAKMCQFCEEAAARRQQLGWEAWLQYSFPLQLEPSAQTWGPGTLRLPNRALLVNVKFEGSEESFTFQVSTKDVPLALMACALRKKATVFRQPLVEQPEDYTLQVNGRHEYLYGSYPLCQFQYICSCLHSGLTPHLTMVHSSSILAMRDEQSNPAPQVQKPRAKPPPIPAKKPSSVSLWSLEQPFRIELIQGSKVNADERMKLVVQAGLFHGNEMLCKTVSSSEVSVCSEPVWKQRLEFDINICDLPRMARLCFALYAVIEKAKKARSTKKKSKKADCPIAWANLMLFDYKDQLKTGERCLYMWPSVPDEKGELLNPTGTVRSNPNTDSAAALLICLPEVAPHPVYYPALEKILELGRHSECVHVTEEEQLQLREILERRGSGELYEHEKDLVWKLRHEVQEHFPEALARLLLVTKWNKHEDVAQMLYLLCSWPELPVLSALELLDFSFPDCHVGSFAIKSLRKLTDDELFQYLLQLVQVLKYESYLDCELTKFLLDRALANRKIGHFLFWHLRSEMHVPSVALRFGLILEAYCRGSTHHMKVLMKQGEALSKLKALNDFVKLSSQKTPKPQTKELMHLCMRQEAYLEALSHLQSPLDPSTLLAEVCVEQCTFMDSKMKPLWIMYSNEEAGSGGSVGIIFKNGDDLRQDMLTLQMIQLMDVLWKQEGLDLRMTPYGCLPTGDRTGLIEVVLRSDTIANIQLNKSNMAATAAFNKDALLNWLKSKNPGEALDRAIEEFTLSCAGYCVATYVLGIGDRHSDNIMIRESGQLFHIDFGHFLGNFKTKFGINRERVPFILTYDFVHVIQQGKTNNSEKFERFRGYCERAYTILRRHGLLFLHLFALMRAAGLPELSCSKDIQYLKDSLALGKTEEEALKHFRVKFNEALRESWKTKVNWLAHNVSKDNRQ
T5 sequence (P27986 whole entry partner): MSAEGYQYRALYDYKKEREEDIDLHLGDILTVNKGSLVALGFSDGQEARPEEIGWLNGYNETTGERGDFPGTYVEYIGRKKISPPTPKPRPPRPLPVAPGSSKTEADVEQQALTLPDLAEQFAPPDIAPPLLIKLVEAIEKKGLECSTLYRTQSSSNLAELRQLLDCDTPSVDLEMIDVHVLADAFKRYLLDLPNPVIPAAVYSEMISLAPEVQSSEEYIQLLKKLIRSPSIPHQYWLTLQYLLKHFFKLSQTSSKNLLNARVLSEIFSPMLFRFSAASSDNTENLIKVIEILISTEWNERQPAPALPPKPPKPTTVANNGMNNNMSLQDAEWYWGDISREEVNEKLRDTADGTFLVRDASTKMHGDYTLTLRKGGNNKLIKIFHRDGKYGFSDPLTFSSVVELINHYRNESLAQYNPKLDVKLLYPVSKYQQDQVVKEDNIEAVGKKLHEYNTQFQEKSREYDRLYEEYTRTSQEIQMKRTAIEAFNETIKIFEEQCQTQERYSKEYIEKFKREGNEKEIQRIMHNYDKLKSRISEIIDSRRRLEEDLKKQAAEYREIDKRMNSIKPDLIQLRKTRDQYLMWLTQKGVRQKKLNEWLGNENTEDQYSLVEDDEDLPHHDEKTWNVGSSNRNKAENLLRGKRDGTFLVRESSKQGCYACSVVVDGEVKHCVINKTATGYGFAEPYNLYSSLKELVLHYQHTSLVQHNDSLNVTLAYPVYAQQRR

For `c1cc(CC2CCOCC2)n2nc(Nc3ccc4c(NC5CCOCC5)n[nH]c4c3)nc2c1` [CC-509, [3-(2H-3,4,5,6-tetrahydropyran-4-ylamino)(1H-indazol-6-yl)][5-(2H-3,4,5,6-tetrahydropyran-4-ylmethyl)(2H-1,2,4-triazolo[1,5-a]pyridin-2-yl)]amine], the remaining activity at 3 µM in experiment [1] is 98%; in experiment [2] it was 95%; in [3], 98%; in [4], 81%; in experiment [5] it was 58%; in experiment [6], 61%. For the same compound, the remaining activity at 3 µM was determined as 120% in experiment [7]; 77% in experiment [8]; 79% in [9]; 96% in [10]; 105% in [11]. Also, in [12], the IC50 (in general, the midpoint of a concentration-inhibition curve) was found to be 150 ± 30 nM.
